Where “and” joins values, the source holds several entries; their conditions need not be identical. Identical values can stand only once.
Columns and labels:
[1] = system: cercariae of S. mansoni; test: Effect of DEET on the morphology of cercariae (transmission electron microscopy); assay type: cell-based, Schistosoma mansoni
Method: Effect of DEET on cercarial morphology was evaluated by transmission electron microscopic studies. In these experiments, approximately 300-500 cercariae of S. mansoni suspended in 100 μl of PBS were placed in each well of a 96 well plate coated with varying concentrations of DEET (ranging from 7.5%-40%) or isopropanol (control) as described above. Samples were collected at 5, 10, 20, 30 and 240 minutes after exposure to DEET and processed for transmission electron microscopy as described in Salafsky et al., Exper. Parasitol., 67:116-127 (1988). Briefly, cercariae collected from each tube were transferred to fresh tubes containing PBS plus 10% fetal bovine serum (Sigma Chemical Co.) and concentrated into a pellet by centrifugation at 500 rpm (300 g) for 5 minutes. The pellet was then fixed overnight at 4° C. in a fixative containing 3% gluteraldehyde, and 1% formaldehyde in a 0.1 M phosphate buffer (pH 7.2). After one hour post fixation in 1% osmium tetroxide the pellet were dehydrated through a graded acetone series and embedded in epon resin. Sections were examined in a Hitachi H-500 transmission electron microscope after staining with uranyl acetate and lead citrate.

[2] = system: Aedes aegypti; test: Laboratory evaluation as mosquito repellant on human volunteers; assay type: in vivo; conditions: 10% or 30%; human forearm
Method: However, one of the major uses of DEET is against mosquitoes. Therefore, we wanted to test whether Lipodeet prolongs the mosquito repellency activity of DEET. These experiments were conducted on human volunteers at the Illinois Natural History Survey Center for Economic Entomology, University of Illinois Urbana-Champaign. […] The test solutions were applied to 8.5 cm area (1.76 μl/cm^2) on the forearm of the subjects and the duration of repellency against the mosquitoes was evaluated over a period of 24 hrs. No treatment was applied to the other forearm and this remained as controls. Paper cups (1 pint) screened at one end with a fine mesh and closed at the other end was used as test cages in this study. […] Five minutes after application of the samples were treated as time 0. After the exposure, mosquitoes were removed and the number that were blooded were counted. Values were expressed as follows: [formula]

[3] = system: cercariae of S. mansoni; test: Wash-off tests with DEET and Lipodeet in schistosomiasis (mice); assay type: in vivo, Schistosoma mansoni
Method: After bathing, mice were allowed to dry completely. The abdominal skin of these mice was then exposed to 150 cercariae of S. mansoni labeled with ^35S-methionine. Degree of protection conferred by Lipodeet and DEET after the wash off treatment was evaluated by monitoring the entry of parasites into the skin by compressed organ autoradiography techniques as described earlier (Li et. al. Parasitology International 46:55-65, 1997).

[4] = system: cercariae of S. mansoni; test: Cercarial penetration through mouse skin and worm establishment, application before infection (compressed organ autoradiography); assay type: in vivo, Schistosoma mansoni; conditions: for protection against schistosomiasis: 10% DEET
Text: For in vivo animal experiments, male mice of the CD1 strain, weighing approximately 18-20 grams, purchased from Charles River Laboratories (Wilmington, Mass.) were used. The use of animals in these experiments were in compliance with the Animal Welfare Act and other Federal statues and regulations relating to animals as stated in the National Institute of Health publication: Guide for the Care and Use of Laboratory Animals. Mice were infected individually with schistosome cercariae via either tail skin or via shaved abdominal skin. For infection via tail skin, the mouse was restrained in a cage and the tail was dipped for 60 minutes in a tube containing 250-300 ^35S-labeled cercariae suspended in 10 ml of distilled water at room temperature. For infection via abdominal skin, the mouse was restrained on its back. After shaving the abdominal skin, 150-200 ^35S-labeled cercariae were applied to the skin in a drop of distilled water, covered with a cover slip and exposed for 30 minutes.
To determine skin penetration and worm establishment, whole tail skin or the area of abdominal skin that was exposed to the cercariae as described above and the lungs were removed from each mouse on day seven after infection and processed for compressed organ autoradiography techniques as described previously (Li J W et al., Parasitology International 46: 55-65 (1997)). Briefly, the skin and lungs were mounted on a cardboard sheet, covered with plastic wrap and kept under a tissue press for 48 hrs at room temperature. The pressed and dried tissue was then exposed to X-ray film (Fuji RX, Fisher Scientific, Pittsburgh, Pa.) at −70° C. for 7-9 days. Following autoradiographic development, the dark spots (which represent reduced silver foci on film) were counted and percent worm establishment was calculated (number of spots/total number of cercariae used for infection X 100).
For application of DEET to the tail skin, mice were individually kept in restraining cages and their tail was dipped in 7.5% DEET solution (prepared in isopropanol) for 5 min. Following application the skin was air dried for 30 min, and rinsed in distilled water for 1 min before exposure to radio-labeled cercariae of S. mansoni as mentioned in Example 3.
For application of DEET to the abdominal skin, mice were restrained to the back and their abdomen shaved. 200 μl of an appropriate concentration of DEET in isopropanol solution was dropped on to the abdomen and allowed to dry for 15 min. After drying, the skin was washed for 1 min with distilled water and exposed to radio-labeled cercariae for 30 min.
Experiments were also conducted to see how long the cercaricidal activity of DEET remained in the skin after a single application. In these experiments 10% DEET was applied to the shaved abdominal skin of mice and was allowed to dry. Thirty minutes after DEET application, the area of skin was washed continuously for one minute with running distilled water. At different time points (30 min, 1 hr, 4 hrs, and 24 hrs) after DEET application, mice were infected with radio-labeled cercariae (as described in Example 2) and worm establishment was determined by compressed organ autoradiography (as described in Example 3).

[5] = 7.5% DEET applied to skin before infection, mice, day 7, n = 10

CCN(CC)C(=O)c1cccc(C)c1 [DEET, N,N-diethyl-m-toluamide]
ultrastructural changes of cercariae ([1]; 7.5% DEET, evident as early as five minutes post-exposure): ultrastructural changes of two types were observed | lysis of cercariae ([1]; 240 min after exposure to DEET): Frank lysis of cercariae | duration of mosquito repellent effect [2]: completely lost by six hours | protective effect after wash-off ([3]; 10%, five minutes of exposure to water, irrespective of water temperature): significantly (p<0.01) abolished the protective effects of DEET | protective effect after wash-off ([3]; concentration increased to 20%): slightly improved the retention of protective ability of DEET | protection against cercarial penetration ([4]; 5% DEET applied to mouse skin): 72% | Percent Worm Established, Lungs [4, 5]: 0 | Percent Worm Established, Skin [4, 5]: 0.13 ± 0.01% | Percent Worm Established, Total [4, 5]: 0.13% and 0.13 ± 0.01% | protection against schistosomiasis ([4]; infection 30 min after application, skin washed one minute): 100% | protection against schistosomiasis ([4]; infection 24 hrs after application): no protection at all | protection against schistosomiasis ([4]; infection four hours after application): 85±1% | protection against schistosomiasis ([4]; infection one hour after application): 98±1% | effectiveness in preventing the entry of cercaria into the mouse skin ([4]; DEET at 10, 20 or 40%): 100%
